Results on two molecules are retold here after patent US10975030B2, “Grp94 selective inhibitors and uses thereof” (University of Kansas, priority 2016, dated 2021).

Data set [1] is described as follows: Anti-proliferation assay (MTS/PMS), PC-3 MM-2. The class given is cell-based. As to conditions: human, PC-3 MM-2 cells, PC-3 MM-2, 25 μM. As to the method: (§1) Anti-proliferation Assays. Cells were seeded (2000/well, 100 μL) in 96-well plates and incubated overnight. Following incubation, compounds with varying concentrations in DMSO (1% DMSO final concentration) were added and cells were returned to the incubator for 72 h. After 72 h, the cell viability was determined using an MTS/PMS cell proliferation kit (Promega) per the manufacturer's instructions. Absorption value from 1% DMSO wells were used as 100% proliferation, and values were adjusted accordingly.

The subject of data set [2] is PC-3 MM-2 cells. As to the kind of experiment: Wound healing scratch assay, PC-3 MM-2. As to conditions: 5 μM ('at 10 μM and 5 μM respectively'), 0, 16, 24 h, FIG. 3B. The data set is classed as cell-based. As to the method:
(§2) Chemicals and Cell culture. Compounds were dissolved in DMSO and stored at −20° C. until use. The PC3-MM2 and MDA-MB-231 cells were maintained in DMEM (Cellgro) media supplemented with streptomycin (500 μg/mL), penicillin (100 units/mL) and 10% FBS at 37° C. and 5% CO2.
(§3) Wound Healing Scratch Assay. The cells were seeded in a 24-well plate in complete media and allowed to form a monolayer. After monolayer formation, a scratch was introduced with a sterile 0.1-10 μl pipet tip. The media was replaced with fresh media in the absence or presence of the indicated drug concentrations. Photomicrographs were taken at different time points with an Olympus IX71 microscope using a 10x air lens and CellSans Dimensions software. The images were processed with Image J software.

The test system of data set [3] is MDA-MB-231 cells. The experiment in a line: Wound healing scratch assay, MDA-MB-231. The data set is classed as cell-based. Particulars: 10 μM ('at 10 μM and 5 μM respectively'), 0, 16, 24 h, FIG. 3A. As to the method:
as §2, §3

Data set [4] has as its target Hsp90α (Homo sapiens (Human), UniProt P07900). As to the kind of experiment: Fluorescence polarization (FP) assay, Hsp90α. The data set is classed as binding. On the procedure:
(§4) Fluorescence Polarization. Assay buffer (25 μL, 20 mM HEPES pH 7.3, 50 mM KCl, 5 mM MgCl2, 1 mM DTT, 20 mM Na2MoO4, 0.01% NP-40, and 0.5 mg/mL BGG) was added to 96-well plate (black well, black bottom) followed by the desired compound at the indicated final concentrations in DMSO (1% DMSO final concentration). […] Plates were incubated with rocking for 5 h at 4° C. […] Percent FITC-GDA bound was determined by using the DMSO millipolarization unit (mP) as the 100% bound value and the 0% for FITC-GDA. Kd values were calculated from separate experiments performed in triplicate using GraphPad Prism.

Data set [5] has as its system integrin α2, integrin αL, Syne2, VAMP2, Rab10 in PC3-MM2 cells. The experiment in a line: Cell fractionation and Western blot analysis of PC3-MM2 cells. As to conditions: 30 μM, 24 h, cytoplasmic (Cyto) fraction, compared to DMSO, FIG. 2A. The data set is classed as cell-based. As to the method:
as §2
(§5) Antibodies. The following antibodies were used for western blotting and/or immunofluorescence: goat anti-integrin α L #sc6609, rabbit anti-SYNE2 #sc99066, and rabbit anti-actin #sc1616-R (Santa Cruz Biotech-nology, Santa Cruz, Calif.); rabbit anti-Integrin α 2 #ab181548, rabbit anti-VAMP2 #ab3347 (Abcam, Cambridge, Mass.); Phalloidin 647 #A22287 (Invitrogen, Carlsbad Calif.); rabbit anti-Rab10 #4262S (Cell Signaling Technology, Danvers, Mass.).
Cell fractionation and Western Blot Analysis. […] After sedimenting the cell debris, the protein concentration of each lysate was measured in quadruplicate using the BCA protein assay and bovine serum albumin as the standard. The coefficient of variation was determined for each set of quadruplicate measures and if the variability exceeded 5%, the protein assay was repeated for that set of samples. […]

Data set [6] concerns PC3-MM2 cells. As to the kind of experiment: Immunofluorescence / confocal microscopy analysis of PC3-MM2 cells. The data set is classed as cell-based. Particulars: FIG. 2B; for F-actin localization: confocal microscopy, versus DMSO treated cells; for integrin α2 localization: immunofluorescence, versus untreated cells. As to the method:
as §2, §5
Immunofluorescence Analysis. For cell imaging, 1 μm-Slide 8 well ibidiTreat IBIDI glass slides were used. PC3-MM2 cells were fixed with freshly made 4% (w/w) paraformaldehyde in PBS for 15 min, permeabilized with 0.1% (w/w) Tween 20 in PBS for 5 min and quenched with 0.1% (w/w) sodium borohydride for 5 min. The sections were blocked with 3% (w/w) BSA in PBS for 1 h and incubated with the primary antibody at a 1:100 concentration in 1% BSA in PBS overnight, prior to incubation with secondary antibody conjugated with Alexa Fluor 568 for 3 h. The sections were counterstained with DAPI and/or with Phalloidin to visualize DNA and filamentous actin (F-actin), respectively. The wells were washed three times with PBS after each step.
Confocal images were acquired using a custom epifluorescent/confocal microscope composed of the following components: an Olympus IX81 inverted spinning disc confocal microscope base (Olympus America, Center Valley, Pa.), a Prior microscope stage for automated image acquisition (Prior Scientific, Rockland, Mass.), an Olympus 60X oil Immersion objective for confocal images (Olympus) and a Hamamatsu Electron Multiplying Charge-Coupled Device (EMCCD) camera (Hamamatsu, Hamamatsu, Shizuoka Prefecture, Japan). Images were captured using the SlideBook acquisition and analysis software, (Intelligent Imaging Innovations (3i), Denver, Colo.).
Images were collected with 8-10 image stacks with a 0.3 micron step size through the cells. Images were processed using Image J software (NIH).

The target of data set [7] is Grp94 (recombinant cGrp94) (Canis lupus familiaris (Dog) (Canis familiaris), UniProt P41148). As to the kind of experiment: Fluorescence polarization (FP) assay, cGrp94 with FITC-GDA. The class given is binding. As to the method: as §4
A general note: In fluorescence polarisation assays a small probe gives low polarisation when free and higher when bound to something large.

A short description of data set [8]: Anti-proliferation assay (MTS/PMS), MDA-MB-231. The class given is cell-based. Particulars: human, MDA-MB-231 cells, MDA-MB-231, 25 μM. On the procedure:
as §1

The test system of data set [9] is I477N mutant myocilin. The experiment in a line: Western blot of I477N mutant myocilin levels in tetracycline inducible HEK cells. The data set is classed as cell-based. Particulars: 30 μM, 24 h, HEK cells over-expressing I477N myocilin. On the procedure: (§6) Cell Culture. Cell culture was performed as described in the art.^25 Tetracycline-inducible Hek cells stably overexpressing I477N mutant myocilin were grown and maintained in Dulbecco's Modified Eagle's Medium supplemented with 10% fetal bovine serum (Invitrogen, penicillin (100 units/mL), streptomycin ([…]) and 1% GlutaMAX (Invitrogen) at 37 C and 5% CO2. Stably overexpressing cells were selected for using hygromycin B ([…]) (InvivoGen) and G418 ([…]) (Gibco). I477N myocilin expression was induced with tetracycline ([…]) for 48H prior to drug treatment.
(§7) Inhibitor Treatment. Inhibitors were solubilized in DMSO (Sigma Aldrich), and diluted to documented concentrations. Cells were treated drop wise with inhibitors 24H prior to cell harvest. DMSO concentration was diluted to 1% total cell medium volume.
(§8) Cell Harvest. Cell harvest was performed as previously described.^21 24H after inhibitor treatment, culture medium was removed and cells were washed 2× with ice cold PBS. […]
(§9) Western Blotting. Western blot analysis was performed as previously described.^41 Cell lysates were prepared at identical protein concentrations, as determined by BCA analysis, in 2× Laemmli sample buffer (Bio-Rad) and denatured by boiling for 5 min at 100 C. […]
Background: A western blot detects proteins with antibodies after separation by electrophoresis.

Data set [10] concerns Hsp70. As to the kind of experiment: Western blot of Hsp70 levels. As to conditions: compared to 17-AAG (5 μM reference). The class given is cell-based. On the procedure: as §6, §7, §8, §9
The test system of data set [11] is Akt. As to the kind of experiment: Western blot of cytosolic Hsp90 client protein Akt. The class given is cell-based. As to conditions: 30 μM (same concentration). On the procedure: as §6, §7, §8, §9

Molecules are shown by their SMILES. Like-named read-outs stand apart in the source and are kept apart here. A value given as a limit tells only on which side of the number the result lay.

Chain of Grp94 (recombinant cGrp94) (P41148 22-804): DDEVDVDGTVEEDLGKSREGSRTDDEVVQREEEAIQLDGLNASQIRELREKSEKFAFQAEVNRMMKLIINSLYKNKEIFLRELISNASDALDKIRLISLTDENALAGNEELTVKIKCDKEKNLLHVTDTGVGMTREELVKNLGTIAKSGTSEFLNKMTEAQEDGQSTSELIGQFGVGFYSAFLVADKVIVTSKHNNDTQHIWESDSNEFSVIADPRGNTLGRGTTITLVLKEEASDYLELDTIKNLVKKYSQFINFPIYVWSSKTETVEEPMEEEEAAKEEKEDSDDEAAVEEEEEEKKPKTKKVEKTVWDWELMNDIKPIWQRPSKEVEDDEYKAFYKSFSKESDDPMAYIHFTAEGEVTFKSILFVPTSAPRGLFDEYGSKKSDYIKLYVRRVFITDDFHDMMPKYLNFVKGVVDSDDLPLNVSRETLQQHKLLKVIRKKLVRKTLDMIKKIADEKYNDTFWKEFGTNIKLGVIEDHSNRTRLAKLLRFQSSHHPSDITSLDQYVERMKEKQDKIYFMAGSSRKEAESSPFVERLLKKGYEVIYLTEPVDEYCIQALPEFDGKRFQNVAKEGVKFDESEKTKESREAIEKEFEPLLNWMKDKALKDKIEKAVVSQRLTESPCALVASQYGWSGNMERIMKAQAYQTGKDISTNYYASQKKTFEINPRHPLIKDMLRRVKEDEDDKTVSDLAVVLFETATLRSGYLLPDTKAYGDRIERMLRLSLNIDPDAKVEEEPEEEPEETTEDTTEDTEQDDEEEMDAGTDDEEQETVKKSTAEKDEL

As a reminder, the viability is the share of living cells, or the viability signal relative to a control. Take `NC(=O)c1ccc(-n2cccc2Cc2ccccc2F)cc1N[C@H]1CC[C@H](O)CC1` [Compound 8e, 4-(2-(2-fluorobenzyl)-1H-pyrrol-1-yl)-2-(((1r,4r)-4-hydroxycyclohexyl)amino)benzamide]: the viability at 72 h, 25 µM in [1] and in data set [8] was greater than 95% throughout. Further, the “migration of PC-3 MM-2 cells” value in data set [2] is reported as “inhibited migration”. Also, the “migration of MDA-MB-231 cells” value in [3] is recorded as “inhibited migration”. For the same molecule, the Kd was greater than 100000 nM in [4]; 720 ± 140 nM in [7] (apparent Kd, cGrp94 and FITC-GDA, triplicates, ± SEM, read-out: Kd Grp94); roughly 724 nM in [7] (read-out: apparent Kd towards Grp94). Further, the “levels of integrin α2, integrin αL, Syne2, VAMP2, and Rab10” value in [5] was “reduced levels”. In addition, the F-actin localization entry in data set [6] is given as “formed sporadic patches in the cytoplasm”. Also, the “integrin α2 localization” value in [6] was “localized as patches in the cytoplasm”.

Regarding `NC(=O)c1ccc(-n2cccc2Cc2ccccc2O)cc1N[C@H]1CC[C@H](O)CC1` [Compound 8j, 4-(2-(2-hydroxybenzyl)-1H-pyrrol-1-yl)-2-(((1r,4r)-4-hydroxycyclohexyl)amino)benzamide], in data set [9], the mutant myocilin levels entry was “significant decrease”. In addition, the Hsp70 levels entry in [10] is given as “remained unaffected”. For the same molecule, the viability at 72 h, 25 µM in [1] and in data set [8] was greater than 95% in each case. In addition, the “migration of PC-3 MM-2 cells” value in data set [2] was “inhibited migration”. Further, the “migration of MDA-MB-231 cells” value in data set [3] is recorded as “inhibited migration”. Moreover, the Akt maturation entry in data set [11] is on record as “did not affect”. Also, the “levels of integrin α2, integrin αL, Syne2, VAMP2, and Rab10” value in data set [5] is listed as “reduced levels”. Besides, the F-actin localization entry in data set [6] is “formed sporadic patches in the cytoplasm”. In addition, the “integrin α2 localization” value in data set [6] is given as “localized as patches in the cytoplasm”.
